Measured values from patent US20250032454A1, “KDM1A INHIBITORS FOR THE TREATMENT OF DISEASE” (Imago Biosciences, Inc., priority 2021, published 2025).
Read-outs that look alike come from different tables or passages of the source.

Assays:
LSD1 = LSD1 (Homo sapiens, UniProt O60341); test: LSD1 fluorescence coupling enzyme assay (HRP/Amplex Red, H3(1-21)K4me2 peptide), 10-dose IC50; type: biochemical; settings: 10 μM histone H3(1-21)K4me2 peptide substrate, 3-fold serial dilution from 100 μM
How it was run: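 Fluorescence coupled assay: LSD1 demethylation of 10 μM H3(1-21)K4me2 peptide produces FAD-dependent H2O2, detected via HRP/Amplex Red as resorufin (Ex/Em 535/590 nm). IC50 from 10 doses, 3-fold serial dilution from 100 μM, in duplicate.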

MV4;11 cells = test: Cell Titer-Glo cell growth inhibition in MV4;11 cell line (Day 5 / Day 10); type: cell-based; settings: Homo sapiens
How it was run: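 Cells seeded at 3750/well and treated with a 10-point, 4-fold dose curve from 0 to 50 µM; ATP-based luminescence viability read at Day 5. A portion is reseeded into fresh compound and media for 5 more days, read at Day 10; IC50 derived from luminescence.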

[1] = MV4-11, 120 h, Day 5, read-out: Cell Titer-Glo IC50 (5 d)
[2] = MV4-11, 240 h, Day 10, read-out: Cell Titer-Glo IC50 (10 d)

COc1ccc(-n2nc(NC[C@H]3C[C@H](N)C3)cc2-c2ccc(C#N)c(F)c2)cc1 [Example 42, 4-(3-((((1r,3r)-3-aminocyclobutyl)methyl)amino)-1-(4-methoxyphenyl)-1H-pyrazol-5-yl)-2-fluorobenzonitrile]
IC50 (LSD1): 1000 to 10000 nM
IC50 (MV4;11 cells; [1]): 1000 to 10000 nM
IC50 (MV4;11 cells; [2]): < 500 nM

COC1CCN(c2ccc(-n3nc(NC[C@H]4CCC[C@H](N)C4)cc3-c3ccc(C#N)c(F)c3)cc2)CC1 [Example 43, 4-(3-((((1S,3S)-3-aminocyclohexyl)methyl)amino)-1-(4-(4-methoxypiperidin-1-yl)phenyl)-1H-pyrazol-5-yl)-2-fluorobenzonitrile]
IC50 (LSD1): < 500 nM
IC50 (MV4;11 cells; [2]): < 500 nM

CN1CCN(c2ccc(-n3nc(NC[C@H]4CCC[C@H](N)C4)cc3-c3ccc(C#N)c(F)c3)cc2)CC1 [Example 44, 4-(3-((((1S,3S)-3-aminocyclohexyl)methyl)amino)-1-(4-(4-methylpiperazin-1-yl)phenyl)-1H-pyrazol-5-yl)-2-fluorobenzonitrile]
IC50 (LSD1): 500 to 1000 nM
IC50 (MV4;11 cells; [1]): < 500 nM
IC50 (MV4;11 cells; [2]): < 500 nM

CN1CCN(c2cccc(-n3nc(NC[C@H]4CCC[C@H](N)C4)cc3-c3ccc(C#N)c(F)c3)c2)CC1 [Example 45, 4-(3-((((1S,3S)-3-aminocyclohexyl)methyl)amino)-1-(3-(4-methylpiperazin-1-yl)phenyl)-1H-pyrazol-5-yl)-2-fluorobenzonitrile]
IC50 (LSD1): 1000 to 10000 nM
IC50 (MV4;11 cells; [1]): 500 to 1000 nM
IC50 (MV4;11 cells; [2]): < 500 nM

N#Cc1ccc(-c2cc(NC[C@H]3CCC[C@H](N)C3)nn2-c2ccc(N3CCN(CCO)CC3)cc2)cc1F [Example 46, 4-(3-((((1S,3S)-3-aminocyclohexyl)methyl)amino)-1-(4-(4-(2-hydroxyethyl)piperazin-1-yl)phenyl)-1H-pyrazol-5-yl)-2-fluorobenzonitrile]
IC50 (LSD1): < 500 nM
IC50 (MV4;11 cells; [1]): < 500 nM
IC50 (MV4;11 cells; [2]): < 500 nM

CS(=O)(=O)N1CCN(c2cccc(-n3nc(NC[C@H]4CCC[C@H](N)C4)cc3-c3ccc(C#N)c(F)c3)c2)CC1 [Example 49, 4-(3-((((1S,3S)-3-aminocyclohexyl)methyl)amino)-1-(3-(4-(methylsulfonyl)piperazin-1-yl)phenyl)-1H-pyrazol-5-yl)-2-fluorobenzonitrile]
IC50 (LSD1): 1000 to 10000 nM
IC50 (MV4;11 cells; [1]): 1000 to 10000 nM
IC50 (MV4;11 cells; [2]): < 500 nM

N#Cc1ccc(-c2cc(NC[C@H]3CCC[C@H](N)C3)nn2-c2ccc(N3CCS(=O)(=O)CC3)cc2)cc1F [Example 50, 4-(3-((((1S,3S)-3-aminocyclohexyl)methyl)amino)-1-(4-(1,1-dioxidothiomorpholino)phenyl)-1H-pyrazol-5-yl)-2-fluorobenzonitrile]
IC50 (LSD1): < 500 nM
IC50 (MV4;11 cells; [1]): < 500 nM
IC50 (MV4;11 cells; [2]): < 500 nM

N#Cc1ccc(-c2cc(NC[C@H]3CCC[C@H](N)C3)nn2-c2cccc(N3CCS(=O)(=O)CC3)c2)cc1F [Example 51, 4-(3-((((1S,3S)-3-aminocyclohexyl)methyl)amino)-1-(3-(1,1-dioxidothiomorpholino)phenyl)-1H-pyrazol-5-yl)-2-fluorobenzonitrile]
IC50 (LSD1): 1000 to 10000 nM
IC50 (MV4;11 cells; [1]): 1000 to 10000 nM
IC50 (MV4;11 cells; [2]): < 500 nM

N#Cc1ccc(-c2cc(NC[C@H]3CCC[C@H](N)C3)nn2-c2ccc(-c3cn[nH]c3)cc2)cc1F [Example 52, 4-(1-(4-(1H-pyrazol-4-yl)phenyl)-3-((((1S,3S)-3-aminocyclohexyl)methyl)amino)-1H-pyrazol-5-yl)-2-fluorobenzonitrile]
IC50 (LSD1): < 500 nM
IC50 (MV4;11 cells; [1]): < 500 nM
IC50 (MV4;11 cells; [2]): < 500 nM

N#Cc1ccc(-c2cc(NC[C@H]3CCC[C@H](N)C3)nn2-c2cccc(-c3cn[nH]c3)c2)cc1F [Example 53, 4-(1-(3-(1H-pyrazol-4-yl)phenyl)-3-((((1S,3S)-3-aminocyclohexyl)methyl)amino)-1H-pyrazol-5-yl)-2-fluorobenzonitrile]
IC50 (LSD1): < 500 nM
IC50 (MV4;11 cells; [1]): 500 to 1000 nM
IC50 (MV4;11 cells; [2]): < 500 nM

Cn1cc(-c2ccc(-n3nc(NC[C@H]4CCC[C@H](N)C4)cc3-c3ccc(C#N)c(F)c3)cc2)cn1 [Example 54, 4-(3-((((1S,3S)-3-aminocyclohexyl)methyl)amino)-1-(4-(1-methyl-1H-pyrazol-4-yl)phenyl)-1H-pyrazol-5-yl)-2-fluorobenzonitrile]
IC50 (LSD1): < 500 nM
IC50 (MV4;11 cells; [1]): < 500 nM
IC50 (MV4;11 cells; [2]): < 500 nM

Cn1cc(-c2cccc(-n3nc(NC[C@H]4CCC[C@H](N)C4)cc3-c3ccc(C#N)c(F)c3)c2)cn1 [Example 55, 4-(3-((((1S,3S)-3-aminocyclohexyl)methyl)amino)-1-(3-(1-methyl-1H-pyrazol-4-yl)phenyl)-1H-pyrazol-5-yl)-2-fluorobenzonitrile]
IC50 (LSD1): < 500 nM
IC50 (MV4;11 cells; [1]): 500 to 1000 nM
IC50 (MV4;11 cells; [2]): < 500 nM

N#Cc1ccc(-c2cc(NC[C@H]3CCC[C@H](N)C3)nn2-c2ccc(-c3cnn(CCO)c3)cc2)cc1F [Example 56, 4-(3-((((1S,3S)-3-aminocyclohexyl)methyl)amino)-1-(4-(1-(2-hydroxyethyl)-1H-pyrazol-4-yl)phenyl)-1H-pyrazol-5-yl)-2-fluorobenzonitrile]
IC50 (LSD1): < 500 nM
IC50 (MV4;11 cells; [1]): < 500 nM
IC50 (MV4;11 cells; [2]): < 500 nM

N#Cc1ccc(-c2cc(NC[C@H]3CCC[C@H](N)C3)nn2-c2cccc(-c3cnn(CCO)c3)c2)cc1F [Example 57, 4-(3-((((1S,3S)-3-aminocyclohexyl)methyl)amino)-1-(3-(1-(2-hydroxyethyl)-1H-pyrazol-4-yl)phenyl)-1H-pyrazol-5-yl)-2-fluorobenzonitrile]
IC50 (LSD1): < 500 nM
IC50 (MV4;11 cells; [1]): 1000 to 10000 nM
IC50 (MV4;11 cells; [2]): < 500 nM

N#Cc1ccc(-c2cc(NC[C@H]3CCC[C@H](N)C3)nn2-c2ccc(-c3cnn(CCCO)c3)cc2)cc1F [Example 58, 4-(3-((((1S,3S)-3-aminocyclohexyl)methyl)amino)-1-(4-(1-(3-hydroxypropyl)-1H-pyrazol-4-yl)phenyl)-1H-pyrazol-5-yl)-2-fluorobenzonitrile]
IC50 (LSD1): < 500 nM
IC50 (MV4;11 cells; [1]): < 500 nM
IC50 (MV4;11 cells; [2]): < 500 nM

CS(=O)(=O)n1cc(-c2ccc(-n3nc(NC[C@H]4CCC[C@H](N)C4)cc3-c3ccc(C#N)c(F)c3)cc2)cn1 [Example 59, 4-(3-((((1S,3S)-3-aminocyclohexyl)methyl)amino)-1-(4-(1-(methylsulfonyl)-1H-pyrazol-4-yl)phenyl)-1H-pyrazol-5-yl)-2-fluorobenzonitrile]
IC50 (LSD1): < 500 nM
IC50 (MV4;11 cells; [1]): 1000 to 10000 nM
IC50 (MV4;11 cells; [2]): < 500 nM

CS(=O)(=O)n1cc(-c2cccc(-n3nc(NC[C@H]4CCC[C@H](N)C4)cc3-c3ccc(C#N)c(F)c3)c2)cn1 [Example 60, 4-(3-((((1S,3S)-3-aminocyclohexyl)methyl)amino)-1-(3-(1-(methylsulfonyl)-1H-pyrazol-4-yl)phenyl)-1H-pyrazol-5-yl)-2-fluorobenzonitrile]
IC50 (LSD1): 1000 to 10000 nM
IC50 (MV4;11 cells; [1]): 1000 to 10000 nM
IC50 (MV4;11 cells; [2]): < 500 nM

N#Cc1ccc(-c2cc(NC[C@H]3CCC[C@H](N)C3)nn2-c2ccc(-n3ccnn3)cc2)cc1F [Example 61, 4-(1-(4-(1H-1,2,3-triazol-1-yl)phenyl)-3-((((1S,3S)-3-aminocyclohexyl)methyl)amino)-1H-pyrazol-5-yl)-2-fluorobenzonitrile]
IC50 (LSD1): < 500 nM
IC50 (MV4;11 cells; [1]): < 500 nM
IC50 (MV4;11 cells; [2]): < 500 nM

N#Cc1ccc(-c2cc(NC[C@H]3CCC[C@H](N)C3)nn2-c2cccc(-n3ccnn3)c2)cc1F [Example 62, 4-(1-(3-(1H-1,2,3-triazol-1-yl)phenyl)-3-((((1S,3S)-3-aminocyclohexyl)methyl)amino)-1H-pyrazol-5-yl)-2-fluorobenzonitrile]
IC50 (LSD1): 500 to 1000 nM
IC50 (MV4;11 cells; [1]): 1000 to 10000 nM
IC50 (MV4;11 cells; [2]): < 500 nM

N#Cc1ccc(-c2cc(NC[C@H]3CCC[C@H](N)C3)nn2-c2ccc(C(=O)N3CCCC3)cc2)cc1F [Example 63, 4-(3-((((1S,3S)-3-aminocyclohexyl)methyl)amino)-1-(4-(pyrrolidine-1-carbonyl)phenyl)-1H-pyrazol-5-yl)-2-fluorobenzonitrile]
IC50 (LSD1): < 500 nM
IC50 (MV4;11 cells; [1]): < 500 nM
IC50 (MV4;11 cells; [2]): < 500 nM

N#Cc1ccc(-c2cc(NC[C@@H]3CCC[C@@H](N)C3)nn2-c2ccc(C(=O)N3CCCC3)cc2)cc1F [Example 64, 4-(3-((((1R,3R)-3-aminocyclohexyl)methyl)amino)-1-(4-(pyrrolidine-1-carbonyl)phenyl)-1H-pyrazol-5-yl)-2-fluorobenzonitrile]
IC50 (LSD1): 1000 to 10000 nM
IC50 (MV4;11 cells; [1]): 1000 to 10000 nM
IC50 (MV4;11 cells; [2]): < 500 nM

N#Cc1ccc(-c2cc(NC[C@H]3CCC[C@H](N)C3)nn2-c2ccc3[nH]ncc3c2)cc1F [Example 65, 4-(3-((((1S,3S)-3-aminocyclohexyl)methyl)amino)-1-(1H-indazol-5-yl)-1H-pyrazol-5-yl)-2-fluorobenzonitrile]
IC50 (LSD1): < 500 nM
IC50 (MV4;11 cells; [1]): 500 to 1000 nM
IC50 (MV4;11 cells; [2]): < 500 nM

Cn1ccc2cc(-n3nc(NCC4CCC[C@H](N)C4)cc3-c3ccc(C#N)c(F)c3)ccc21 (stereo partly drawn) [Example 66, 4-(3-((((1,3S)-3-aminocyclohexyl)methyl)amino)-1-(1-methyl-1H-indol-5-yl)-1H-pyrazol-5-yl)-2-fluorobenzonitrile]
IC50 (LSD1): < 500 nM
IC50 (MV4;11 cells; [1]): < 500 nM
IC50 (MV4;11 cells; [2]): < 500 nM

Cn1cc2ccc(-n3nc(NC[C@H]4CCC[C@H](N)C4)cc3-c3ccc(C#N)c(F)c3)cc2n1 [Example 67, 4-(3-((((1S,3S)-3-aminocyclohexyl)methyl)amino)-1-(2-methyl-2H-indazol-6-yl)-1H-pyrazol-5-yl)-2-fluorobenzonitrile]
IC50 (LSD1): 500 to 1000 nM
IC50 (MV4;11 cells; [1]): < 500 nM
IC50 (MV4;11 cells; [2]): < 500 nM

Cn1nnc2cc(-n3nc(NC[C@H]4CCC[C@H](N)C4)cc3-c3ccc(C#N)c(F)c3)ccc21 [Example 68, 4-(3-((((1S,3S)-3-aminocyclohexyl)methyl)amino)-1-(1-methyl-1H-benzo[d][1,2,3]triazol-5-yl)-1H-pyrazol-5-yl)-2-fluorobenzonitrile]
IC50 (LSD1): < 500 nM
IC50 (MV4;11 cells; [1]): < 500 nM
IC50 (MV4;11 cells; [2]): < 500 nM
